Assay results from US10898582B2, “Bi-functional allosteric protein-drug molecules for targeted therapy” (UNIVERSITY OF UTAH RESEARCH FOUNDATION, priority 2014, dated 2021).
Values belong to the compound of their own block, whether it stands above or below them.

Assays:
breast cancer cells = assay: Short-term (4 hours) treatment of breast cancer cells, dose-dependent IC50; assay type: cell-based; conditions: breast cancer cells exposed for 4 hours
Description: To examine whether the improved cellular uptake of 17-AAG by the PTD-ABD leads to enhanced efficacy of 17-AAG, breast cancer cells were exposed to 17-AAG or the PTD-ABD-17-AAG for 4 hours in a dose-dependent manner. […] Due to the facilitated uptake of 17-AAG bound to the PTD-ABD, the short-term treatment of 17-AAG at low concentrations can increase the cellular concentration of 17-AAG, which results in the enhanced anti-cancer efficacy of 17-AAG. Free 17-AAG was not sufficiently internalized into cells during the short incubation time because of the poor uptake kinetics of free 17-AAG.

[1] = tested on: MCF-7 breast cancer cells; assay: Viability of MCF-7 breast cancer cells, dose-dependent IC50; assay type: cell-based
Description: To test the therapeutic efficacy of the formulation of PTD-ABD-17-AAG in MCF-7 breast cancer cells, the IC50 value was determined in a dose-dependent manner. The IC50 value is a measure of how effective a drug or therapeutic is and is defined as the concentration required to inhibit a biological process or component of a biological process (e.g., enzyme, cell, cell receptor) in half. The PTD-ABD-17-AAG was prepared as described above (Example 1) and administered to cancer cells. MCF-7 cells were exposed to one of the following formulations: 1) PTD-ABD-17-AAG; 2) 17-AAG; or 3) PTD-ABD.

MCF-7 cells = assay: Uptake kinetics of FITC-GM into MCF-7 cells; assay type: cell-based; conditions: 2 hours post-treatment
Description: Finally, 10 μg/ml of GM was sufficient to achieve internalization into 100% of the cell population when delivered by the PTD-ABD protein (FIG. 3c).

microtubules = conditions: cited from earlier work

IC50 value (breast cancer cells): approximately 25 μg/ml
IC50 [1]: 15 µM
Compound: C=CCNC1=C2C[C@@H](C)C[C@H](OC)[C@H](O)[C@@H](C)/C=C(\C)[C@H](OC(N)=O)[C@@H](OC)/C=C\C=C(/C)C(=O)NC(=CC1=O)C2=O [17-AAG, 17-allylamino-17-demethoxygeldanamycin]

Compound: COC1=C2C[C@@H](C)C[C@H](OC)[C@H](O)[C@@H](C)/C=C(\C)[C@H](OC(N)=O)[C@@H](OC)/C=C\C=C(/C)C(=O)NC(=CC1=O)C2=O [GM, Geldanamycin]
cell population positive to FITC (GM internalized) (MCF-7 cells): 60%

Compound: CC(=O)O[C@H]1C(=O)[C@@]2(C)[C@H]([C@H](OC(=O)c3ccccc3)[C@]3(O)C[C@H](OC(=O)[C@H](O)[C@@H](NC(=O)c4ccccc4)c4ccccc4)C(C)=C1C3(C)C)[C@]1(OC(C)=O)CO[C@@H]1C[C@@H]2O [PTX, paclitaxel]
binding affinity Ka to microtubules (microtubules): ~6e+07 M⁻¹
